Here are results for four compounds from ChEMBL document CHEMBL2086378, “Eudesmane-type sesquiterpenoid and guaianolides from Kandelia candel in a screening program for compounds to overcome TRAIL resistance” (2012).

Format in all cases: functional
Assay [1] relates to AGS. As to the kind of experiment: Cytotoxicity against TRAIL-resistant human AGS cells assessed as inhibition of cell viability at 80 uM after 24 hrs by fluorescence assay in presence of 100 ng/ml TRAIL relative to in absence of TRAIL.
In assay [2] the test system is AGS. The assay can be described thus: Cytotoxicity against TRAIL-resistant human AGS cells assessed as inhibition of cell viability at 50 uM after 24 hrs by fluorescence assay in presence of 100 ng/ml TRAIL relative to in absence of TRAIL.
Assay [3] concerns AGS. As to the kind of experiment: Cytotoxicity against TRAIL-resistant human AGS cells assessed as inhibition of cell viability at 17.5 uM after 24 hrs by fluorescence assay in presence of 100 ng/ml TRAIL relative to in absence of TRAIL.
Assay [4] relates to AGS. As to the kind of experiment: Cytotoxicity against TRAIL-resistant human AGS cells assessed as inhibition of cell viability at 10 uM after 24 hrs by fluorescence assay in presence of 100 ng/ml TRAIL relative to in absence of TRAIL.

For `C=C(C(=O)OC)[C@@H]1CC[C@@]2(C)C=CC(=O)C(C)=C2C1`, in assay [1], the “inhibition (INH)” value was determined as 29%.
With `CC(=O)O[C@H]1CC(C)=C2C(=O)C=C(C)[C@@H]2[C@H]2OC(=O)[C@@H](C)[C@@H]21`, the “inhibition (INH)” value in assay [2] stood at 23%.
In the case of `O=c1cc(-c2ccc(O)c(O)c2)oc2cc(O)cc(O)c12` [LUTEOLIN], the “inhibition (INH)” value in assay [3] is recorded as 48%.
Turning to `C/C=C(\C)C(=O)O[C@H]1CC(C)=C2C(=O)C=C(C)[C@@H]2[C@H]2OC(=O)[C@@H](C)[C@@H]21` [MEHIRUGIN B], the “inhibition (INH)” value in assay [4] came to 27%.
